Test results taken from US10590373B2, “Systems and methods for biomimetic fluid processing” (BRIGHAM AND WOMEN'S HOSPITAL, INC., priority 2014, dated 2020).

Tested on: mouse fetal liver culture-derived (mFLC) MKs
Assay: shear-induced proPLT production and PLT release by MKs in the microfluidic device after drug incubation
Format: cell-based
Settings: for PLT release: under both static and physiological shear conditions; for shear-induced proPLT production: physiological shear
Method: Devices were coated with a 0.22 μm filtered 10% BSA solution (Millipore, Billerica, Mass.) for 30 minutes to prevent direct cell contact with glass. Referring to FIG. 1, primary MKs and media were infused in the first inlet 118 and second inlet 122, respectively, at a rate of 12.5 μL/hour using a two-syringe microfluidic pump (Harvard Apparatus, Holliston, Mass.). When the first outlet 120 was closed, both input solutions were redirected toward the second outlet 124 causing primary MKs to trap.
For shear cultures, MKs were loaded onto ‘naked’ microfluidic devices (only BSA-coated), and the infusion rate was doubled incrementally from 12.5 μL/hr to 200 μL/hr over a 2 hour period. For static cultures, isolated MKs were pipetted into chambers formed by mounting a glass coverslide coated with 3% BSA onto a […] with a 1 cm hole and cultured for 24 hours. Both static and shear cultures were maintained at 37 degrees C. and 5 percent CO2 and examined on a Zeiss Axiovert 200 (Carl Zeiss, Thornwood, N.Y.) equipped with 10× (numerical aperature, 0.30) Plan-Neofluar air objective. Differential interference contrast (DIC) images were obtained using CCD camera (Hamamatsu Photonics, Boston, Mass.) at either 2 second (shear cultures) or 20 minute (static cultures) intervals. Images were analyzed using the Metamorph version 7.7.2.0 image analysis software (Molecular Devices, Sunnyvale, Calif., USA) and ImageJ software version 1.47p. ProPLT extension rates were determined manually for over 200 MKs from at least three independent samples. For PLT spreading experiments, effluent was collected from microfluidic devices after 2 hours and pipetted into uncoated static culture chambers, described above. PLTs were permitted to contact glass by gravity sedimentation and spreading was captured at 5 second intervals over a 5 minute period.
In vivo BM MKs extend proPLTs in the direction of blood flow and release PLTs, proPLTs, large cytoplasmic fragments (prePLTs), and even whole MKs into sinusoidal blood vessels which may be trapping in the pulmonary microvascular bed, or otherwise maturing in the circulation. To determine the effect of physiological shear on PLT production, mouse fetal liver culture-derived (mFLC) MKs were isolated on culture day 4 and characterized by size and ploidy before being infused into the microfluidic device (shown in FIG. 3A).
While shear rates were kept constant, proPLT extension rates varied at different positions along the shaft, predictive of a regulated cytoskeletal driven mechanism of proPLT elongation (shown in FIG. 4C). […]

CCCCCC[C@@H]([C@@H](C)O)n1cnc2c(N)ncnc21 (racemic) [EHNA]
PLT release (1 mM EHNA): inhibited | shear-induced proPLT production (MKs incubated with 1 mM EHNA prior to infusion in microfluidic device): inhibit

C/C1=C\[C@H](C)C[C@H](C)OC(=O)C[C@H](c2ccc(O)cc2)NC(=O)[C@@H](Cc2c(Br)[nH]c3ccccc23)N(C)C(=O)[C@H](C)NC(=O)[C@@H](C)C1 [Jas, Jasplankinolide]
PLT release (5 μM Jas): inhibited | shear-induced proPLT production (MKs incubated with 5 μM Jas prior to infusion in microfluidic device): inhibit
